Assay results as given in patent US9714236B2, “Compounds and methods for inhibiting JAK” (AstraZeneca AB, priority 2015, dated 2017).

Columns and labels:
Format in all cases: biochemical
[1] = biological target: recombinant JAK1 (amino acids 866-1154) (Homo sapiens (Human), UniProt P23458); assay: Enzyme inhibition studies, JAK1 (peptide phosphorylation, Caliper LC3000); details: ATP concentration not given (assayed at ATP Km 55 μM and at 5 mM)
Protocol: (§1) Enzyme inhibition studies were performed using recombinant JAK1 (amino acids 866-1154, Life Technologies, #PV4774, Carlsbad, Calif.), JAK2 (amino acids 831-1132), or JAK3 (amino acids 781-1124) under buffer conditions of 50 mM HEPES pH 7.3, 1 mM DTT, 0.01% Tween® 20, 50 μg/mL BSA, and 10 mM MgCl2. JAK enzyme was expressed as an N-terminal GST fusion in insect cells and purified by glutathione-affinity and size-exclusion chromatographies. […] Phosphorylated and unphosphorylated peptides were separated and quantified by a Caliper LC3000 system (Caliper Life Sciences, MA) for calculating percent inhibition.

[2] = biological target: recombinant JAK2 (amino acids 831-1132) (Homo sapiens (Human), UniProt O60674); assay: Enzyme inhibition studies, JAK2 (peptide phosphorylation, Caliper LC3000); details: ATP concentration of the tabulated values not stated (assayed at ATP Km 15 μM and at 5 mM)
Chain of recombinant JAK2 (amino acids 831-1132) (O60674 831-1132): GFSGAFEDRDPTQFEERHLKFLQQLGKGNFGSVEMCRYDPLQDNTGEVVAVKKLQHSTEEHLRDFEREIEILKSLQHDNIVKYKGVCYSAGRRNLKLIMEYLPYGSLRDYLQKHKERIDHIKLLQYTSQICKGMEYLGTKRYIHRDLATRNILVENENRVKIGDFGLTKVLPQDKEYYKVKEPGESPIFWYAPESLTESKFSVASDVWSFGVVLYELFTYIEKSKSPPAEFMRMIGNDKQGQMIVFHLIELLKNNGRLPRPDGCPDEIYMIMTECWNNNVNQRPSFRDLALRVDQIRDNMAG
Protocol: as §1

[3] = biological target: recombinant JAK3 (amino acids 781-1124) (Homo sapiens (Human), UniProt P52333); assay: Enzyme inhibition studies, JAK3 (peptide phosphorylation, Caliper LC3000); details: ATP concentration of the tabulated values not stated (assayed at ATP Km 3 μM and at 5 mM)
Chain of recombinant JAK3 (amino acids 781-1124) (P52333 781-1124): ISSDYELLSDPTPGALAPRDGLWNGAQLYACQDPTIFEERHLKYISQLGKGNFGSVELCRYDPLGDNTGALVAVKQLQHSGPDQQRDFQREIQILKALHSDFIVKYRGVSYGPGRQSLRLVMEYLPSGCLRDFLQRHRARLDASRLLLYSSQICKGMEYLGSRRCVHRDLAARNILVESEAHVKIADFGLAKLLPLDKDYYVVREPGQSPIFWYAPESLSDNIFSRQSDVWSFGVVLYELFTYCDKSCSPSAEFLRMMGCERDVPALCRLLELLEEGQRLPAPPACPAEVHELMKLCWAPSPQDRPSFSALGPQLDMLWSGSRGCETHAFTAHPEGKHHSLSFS
Protocol: as §1

Chain of recombinant JAK1 (amino acids 866-1154) (P23458 866-1154): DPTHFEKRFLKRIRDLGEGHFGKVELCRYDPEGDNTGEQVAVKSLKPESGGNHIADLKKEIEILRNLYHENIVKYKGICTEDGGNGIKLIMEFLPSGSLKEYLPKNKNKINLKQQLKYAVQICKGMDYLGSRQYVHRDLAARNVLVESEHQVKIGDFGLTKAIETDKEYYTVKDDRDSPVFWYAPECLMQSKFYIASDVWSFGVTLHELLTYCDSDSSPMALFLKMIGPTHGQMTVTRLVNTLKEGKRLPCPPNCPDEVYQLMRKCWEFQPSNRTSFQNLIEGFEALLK

SMILES | IC50 [1] | IC50 [2] | IC50 [3]
CCc1nn(C)cc1Nc1ncc(C)c(-c2c[nH]c3c(NC(=O)[C@@H](C)N4CCN(C)CC4)cccc23)n1 [Example 55, (2R)-N-(3-{2-[(3-ethyl-1-methyl-1H-pyrazol-4-yl)amino]-5-methylpyrimidin-4-yl}-1H-indol-7-yl)-2-(4-methylpiperazin-1-yl)propanamide] | 0.027 µM | 4.22 µM | > 30 µM
COc1nn(C)cc1Nc1ncc(C)c(-c2c[nH]c3c(NC(=O)[C@@H](C)N4CCN(C)[C@H](C)C4)cccc23)n1 [Example 18, (2R)-2-[(3R)-3,4-dimethylpiperazin-1-yl]-N-(3-{2-[(3-methoxy-1-methyl-1H-pyrazol-4-yl)amino]-5-methylpyrimidin-4-yl}-1H-indol-7-yl)propanamide] | 0.057 µM | 17.3 µM | > 30 µM
COc1nn(C)cc1Nc1ncc(C)c(-c2c[nH]c3c(NC(=O)[C@@H](C)N4CCN(C)C[C@@H]4C)cccc23)n1 [Example 19, (2R)-2-[(2S)-2,4-dimethylpiperazin-1-yl]-N-(3-{2-[(3-methoxy-1-methyl-1H-pyrazol-4-yl)amino]-5-methylpyrimidin-4-yl}-1H-indol-7-yl)propanamide] | 0.296 µM | > 30 µM | > 30 µM
CCOc1nn(C)cc1Nc1ncc(C)c(-c2c[nH]c3c(NC(=O)[C@@H](C)N4CCN(C)[C@H](C)C4)cccc23)n1 [Example 24, (2R)-2-[(3R)-3,4-dimethylpiperazin-1-yl]-N-(3-{2-[(3-ethoxy-1-methyl-1H-pyrazol-4-yl)amino]-5-methylpyrimidin-4-yl}-1H-indol-7-yl)propanamide] | 0.113 µM | > 30 µM | > 30 µM
COc1nn(C)cc1Nc1nccc(-c2c[nH]c3c(NC(=O)[C@@H](C)N4CCN(C)[C@H](C)C4)cccc23)n1 [Example 30, (2R)-2-[(3R)-3,4-dimethylpiperazin-1-yl]-N-(3-{2-[(3-methoxy-1-methyl-1H-pyrazol-4-yl)amino]pyrimidin-4-yl}-1H-indol-7-yl)propanamide] | 0.304 µM | > 30 µM | > 30 µM
CC[C@H](C(=O)Nc1cccc2c(-c3ccnc(Nc4cn(C)nc4OC)n3)c[nH]c12)N1CCN(C)CC1 [Example 47, (2R)-N-(3-{2-[(3-Methoxy-1-methyl-1H-pyrazol-4-yl)amino]pyrimidin-4-yl}-1H-indol-7-yl)-2-(4-methylpiperazin-1-yl)butanamide] | 0.013 µM | 6.95 µM | > 30 µM
COc1nn(C)cc1Nc1ncc(C)c(-c2c[nH]c3c(NC(=O)[C@@H](C)N4CCN(C)C[C@H]4C)cccc23)n1 [Example 38, (2R)-2-[(2R)-2,4-dimethylpiperazin-1-yl]-N-(3-{2-[(3-methoxy-1-methyl-1H-pyrazol-4-yl)amino]-5-methylpyrimidin-4-yl}-1H-indol-7-yl)propanamide] | 0.013 µM | 6.48 µM | > 30 µM
COc1nn(C)cc1Nc1ncc(C)c(-c2c[nH]c3c(NC(=O)[C@H](C)N4CCN(C)CC4)cccc23)n1 [Example 33, (2S)-N-(3-{2-[(3-methoxy-1-methyl-1H-pyrazol-4-yl)amino]-5-methylpyrimidin-4-yl}-1H-indol-7-yl)-2-(4-methylpiperazin-1-yl)propanamide] | 0.272 µM | > 30 µM | > 30 µM
COc1nn(C)cc1Nc1ncc(F)c(-c2c[nH]c3c(NC(=O)[C@@H](C)N4CCN(C)C[C@H]4C)cccc23)n1 [Example 6] | 0.03 µM | 9.62 µM | > 30 µM
CCOc1nn(C)cc1Nc1ncc(F)c(-c2c[nH]c3c(NC(=O)[C@@H](C)N4CCN(C)C[C@@H]4C)cccc23)n1 [Example 10a, (2R)-2-[(2S)-2,4-dimethylpiperazin-1-yl]-N-(3-{2-[(3-ethoxy-1-methyl-1H-pyrazol-4-yl)amino]-5-fluoropyrimidin-4-yl}-1H-indol-7-yl)propanamide] | 0.846 µM |  | 
COc1nn(C)cc1Nc1nccc(-c2c[nH]c3c(NC(=O)[C@@H](C)N4CCN(C)C[C@@H]4C)cccc23)n1 [Example 1, (2R)-2-[(2S)-2,4-dimethylpiperazin-1-yl]-N-(3-{2-[(3-methoxy-1-methyl-1H-pyrazol-4-yl)amino]pyrimidin-4-yl}-1H-indol-7-yl)propanamide] | 0.847 µM |  | 
CCOc1nn(C)cc1Nc1ncc(F)c(-c2c[nH]c3c(NC(=O)[C@@H](C)N4CCN(C)C[C@H]4C)cccc23)n1 [Example 12, (2R)-2-[(2R)-2,4-dimethylpiperazin-1-yl]-N-(3-{2-[(3-ethoxy-1-methyl-1H-pyrazol-4-yl)amino]-5-fluoropyrimidin-4-yl}-1H-indol-7-yl)propanamide] | 0.068 µM |  | 
CCOc1nn(C)cc1Nc1ncc(F)c(-c2c[nH]c3c(NC(=O)[C@H](C)N4CCN(C)C[C@@H]4C)cccc23)n1 [Example 10b, (2S)-2-[(2S)-2,4-dimethylpiperazin-1-yl]-N-(3-{2-[(3-ethoxy-1-methyl-1H-pyrazol-4-yl)amino]-5-fluoropyrimidin-4-yl}-1H-indol-7-yl)propanamide] | 7.6 µM |  | 

Next, values leading:

IC50 [1] | IC50 [2] | IC50 [3] | SMILES
< 0.005 µM | 2.58 µM | > 30 µM | Cc1cnc(Nc2cn(C)nc2C)nc1-c1c[nH]c2c(NC(=O)[C@@H](C)N3CCN(C)CC3)cccc12 [Example 41, (2R)-N-(3-{2-[(1,3-dimethyl-1H-pyrazol-4-yl)amino]-5-methylpyrimidin-4-yl}-1H-indol-7-yl)-2-(4-methylpiperazin-1-yl)propanamide]
0.426 µM | > 30 µM | > 30 µM | CCOc1nn(C)cc1Nc1ncc(F)c(-c2c[nH]c3c(NC(=O)[C@@H](C)N4CCN(CCOC)CC4)cccc23)n1 [Example 9, (2R)-N-(3-{2-[(3-ethoxy-1-methyl-1H-pyrazol-4-yl)amino]-5-fluoropyrimidin-4-yl}-1H-indol-7-yl)-2-[4-(2-methoxyethyl)piperazin-1-yl]propanamide]
3.6 µM | > 30 µM | > 30 µM | COc1nn(C)cc1Nc1ncc(F)c(-c2c[nH]c3c(NC(=O)[C@H](C)N4CCN(C)C[C@@H]4C)cccc23)n1 [Example 7b, (2S)-2-[(2S)-2,4-dimethylpiperazin-1-yl]-N-(3-{5-fluoro-2-[(3-methoxy-1-methyl-1H-pyrazol-4-yl)amino]pyrimidin-4-yl}-1H-indol-7-yl)propanamide]
0.024 µM | 10.4 µM | > 30 µM | COc1nn(C)cc1Nc1ncc(F)c(-c2c[nH]c3c(NC(=O)[C@@H](C)N4CCN(C)[C@@H](C)C4)cccc23)n1 [Example 5, (2R)-2-[(3S)-3,4-dimethylpiperazin-1-yl]-N-(3-{5-fluoro-2-[(3-methoxy-1-methyl-1H-pyrazol-4-yl)amino]pyrimidin-4-yl}-1H-indol-7-yl)propanamide]
0.069 µM | 16.7 µM | > 30 µM | COc1nn(C)cc1Nc1nccc(-c2c[nH]c3c(NC(=O)[C@@H](C)N4CCN(C)[C@@H](C)C4)cccc23)n1 [Example 26, (2R)-2-[(3S)-3,4-dimethylpiperazin-1-yl]-N-(3-{2-[(3-methoxy-1-methyl-1H-pyrazol-4-yl)amino]pyrimidin-4-yl}-1H-indol-7-yl)propanamide]
0.007 µM | 2.53 µM | > 30 µM | COc1nn(C)cc1Nc1ncc(C)c(-c2c[nH]c3c(NC(=O)[C@@H](C)N4CCN(CCO)CC4)cccc23)n1 [Example 15, (2R)-2-[4-(2-hydroxyethyl)piperazin-1-yl]-N-(3-{2-[(3-methoxy-1-methyl-1H-pyrazol-4-yl)amino]-5-methylpyrimidin-4-yl}-1H-indol-7-yl)propanamide]
2.9 µM | > 30 µM | > 30 µM | COC[C@@H](C(=O)Nc1cccc2c(-c3ccnc(Nc4cn(C)nc4OC)n3)c[nH]c12)N1CCN(C)CC1 [Example 61, (2S)-3-Methoxy-N-(3-{2-[(3-methoxy-1-methyl-1H-pyrazol-4-yl)amino]pyrimidin-4-yl}-1H-indol-7-yl)-2-(4-methylpiperazin-1-yl)propanamide]
1.67 µM | > 30 µM | > 30 µM | COC[C@@H](C(=O)Nc1cccc2c(-c3nc(Nc4cn(C)nc4C)ncc3F)c[nH]c12)N1CCN(C)CC1 [Example 54, (2S)-N-(3-{2-[(1,3-dimethyl-1H-pyrazol-4-yl)amino]-5-fluoropyrimidin-4-yl}-1H-indol-7-yl)-3-methoxy-2-(4-methylpiperazin-1-yl)propanamide]
< 0.003 µM |  |  | CC[C@H](C(=O)Nc1cccc2c(-c3nc(Nc4cn(C)nc4OC)ncc3F)c[nH]c12)N1CCN(C)CC1 [Example 51, (2R)-N-(3-{5-fluoro-2-[(3-methoxy-1-methyl-1H-pyrazol-4-yl)amino]pyrimidin-4-yl}-1H-indol-7-yl)-2-(4-methylpiperazin-1-yl)butanamide]
0.296 µM |  |  | CC[C@@H](C(=O)Nc1cccc2c(-c3nc(Nc4cn(C)nc4OC)ncc3F)c[nH]c12)N1CCN(C)CC1 [Example 52, (2S)-N-(3-{5-fluoro-2-[(3-methoxy-1-methyl-1H-pyrazol-4-yl)amino]pyrimidin-4-yl}-1H-indol-7-yl)-2-(4-methylpiperazin-1-yl)butanamide]
0.097 µM |  |  | COc1nn(C)cc1Nc1nccc(-c2c[nH]c3c(NC(=O)[C@@H](C)N4CCN(C)C[C@H]4C)cccc23)n1 [Example 29, (2R)-2-[(2R)-2,4-dimethylpiperazin-1-yl]-N-(3-{2-[(3-methoxy-1-methyl-1H-pyrazol-4-yl)amino]pyrimidin-4-yl}-1H-indol-7-yl)propanamide]
